The subject of one test is MV4-11. As to the kind of experiment: Antiproliferative activity against human MV411 cells after 72 hrs by CellTitre-Glo assay. The settings on record: MV4-11, 72 h.
Another test relates to THP-1. As to the kind of experiment: Antiproliferative activity against human THP1 cells after 72 hrs by CellTitre-Glo assay. The settings on record: THP-1, 72 h.
Test [1] addresses Lysine-specific histone demethylase 1A (Homo sapiens, UniProt O60341). Kind of test: Inhibition of recombinant human His-tagged LSD1 expressed in Escherichia coli BL21 (DE3) using H3K4me2 peptide as substrate preincubated for 10 mins followed by substrate addition measured after 20 mins by Amplex red dye based fluorescence assay.

Experimental findings from ChEMBL document CHEMBL4038297, “Fluorinated tranylcypromine analogues as inhibitors of lysine-specific demethylase 1 (LSD1, KDM1A)” (Bioorg Med Chem Lett, 2017) are described below.

Molecules are shown by their SMILES.

Broadly, the IC50 is the point on the concentration scale where inhibition reaches its midpoint. Consider `N[C@@H]1C[C@H]1c1ccccc1.N[C@H]1C[C@@H]1c1ccccc1` (racemic) [TRANYLCYPROMINE], for which the IC50 came to 630 µM in the test with MV4-11 and 810 µM with THP-1.

Take `N[C@H]1C[C@@]1(F)c1ccccc1`: in test [1], the IC50 is more than 25 µM.

Turning to `N[C@H]1C[C@]1(F)c1ccccc1`, in test [1], the IC50 was more than 25 µM.

Take `N[C@H]1C[C@@]1(F)c1ccc([N+](=O)[O-])cc1` (relative stereo): the IC50 in test [1] was more than 50 µM.

As for `CCOc1ccc([C@]2(F)C[C@@H]2N)cc1` (relative stereo), the IC50 in test [1] was more than 50 µM.

For `Cc1ccc([C@]2(F)C[C@@H]2N)cc1`, the IC50 in test [1] was more than 25 µM.

For the compound `COc1cccc([C@@]2(F)C[C@@H]2N)c1` (relative stereo), the IC50 was 1.9 µM with MV4-11 and 8.5 µM in the test with THP-1.

As for `COc1ccc([C@@]2(F)C[C@@H]2N)cc1`, the IC50 in test [1] is more than 25 µM.

Regarding `COc1ccc([C@]2(F)C[C@@H]2N)cc1`, in test [1], the 50% inhibitory concentration (IC50) is more than 25 µM.

As for `N[C@H]1C[C@]1(F)c1cccc([N+](=O)[O-])c1` (relative stereo), the IC50 with MV4-11 and with THP-1 was more than 30 µM throughout.

Take `N[C@H]1C[C@@]1(F)c1cccc(F)c1` (relative stereo): the figures for the half-inhibitory concentration (IC50) with MV4-11 and in the test on THP-1 were 8.2 µM and 7 µM, respectively.

Regarding `N[C@H]1C[C@]1(F)c1ccc([N+](=O)[O-])cc1` (relative stereo), the IC50 in test [1] was more than 50 µM.

Regarding `N[C@H]1C[C@]1(F)c1ccc(F)cc1`, the IC50 in test [1] was more than 25 µM.

As to `Cc1ccc([C@@]2(F)C[C@@H]2N)cc1`, the IC50 in test [1] was more than 25 µM.

Take `N[C@H]1C[C@]1(F)c1cccc(F)c1` (relative stereo): the figures for the IC50 with MV4-11 and with THP-1 were 4.9 µM and 1.6 µM, respectively.

For `CCOc1ccc([C@@]2(F)C[C@@H]2N)cc1` (relative stereo), the IC50 in test [1] was more than 50 µM.

As to `N[C@H]1C[C@@]1(F)c1ccc(F)cc1`, the half-maximal inhibitory concentration (IC50) in test [1] is more than 25 µM.
